The numbers were not newly measured in US6443892B1, “Sweat collecting device and methods for use and detection of tampering” (The United States of America as represented by the …, priority 2000, dated 2002), which cites them from elsewhere.

The conditions of data set [1]: hydrophilic dye; hydration of inner pad not reported.
The conditions of data set [2]: basic media.

Consider `CCN(CC)c1ccc2c(-c3ccccc3C(=O)O)c3ccc(=[N+](CC)CC)cc-3oc2c1.[Cl-]` [rhodamine B], for which, in data set [1], the CFWO through membrane entry was “No CFWO was observed”.
`CC(=O)Oc1ccc2c3c1O[C@H]1[C@@H](OC(C)=O)C=C[C@H]4[C@@H](C2)N(C)CC[C@@]341` [heroin]: the “earliest collection time with detectable concentrations after drugs placed on outside of membrane” value in data set [2] is on record as “approximately 30 seconds”.
On to `CN[C@@H](C)Cc1ccccc1` [methamphetamine], for which the “earliest collection time with detectable concentrations after drugs placed on outside of membrane” value in data set [2] is given as “approximately 30 seconds”.
